According to patent US10874683B2, “N4-hydroxycytidine and derivatives and anti-viral uses related thereto” (Emory University, priority 2016, dated 2020):
In brackets after ≈: the same amount, converted by molar mass. Where two headings read alike, the source gives them in different places.

What was measured:
SARS Coronavirus Orbani = experiment: microbe, parasite or virus in culture; type: cell-based; details: Severe acute respiratory syndrome coronavirus, Vero 76
in vitro = details: African green monkey
Norovirus GT1 = Norovirus GT1 antiviral screening in HG23 cells; type: cell-based
[1] = Cytotoxicity in HG23 cells (Norovirus screen); type: cell-based; details: human
[2] = Rodent pharmacokinetic experiment in DBA-1J mice; type: in vivo; details: for concentration at 24 h: oral, read-out: 24 hr plasma levels
Experimental: DBA-1J mice (6-8 weeks old, female) were acclimated for ≥2 days after receipt. Mice were weighed the day before dosing to calculate dosing volumes. Mice were dosed by oral gavage with drug at 30 mg/kg, 100 mg/kg & 300 mg/kg. The mice were sampled at […] time points: 0.5, 1, 2, 3, 4, 8 and 24 hrs (3 mice per time point for test drug). The mice were euthanized and their organs were collected (see below). In order to collected blood, mice with euthanized by CO2 at the appropriate time point listed above. Blood was obtained by cardiac puncture (0.3 ml) at each time point. Following blood collection, the organs were removed from the mice (see below). The blood was processed by inverting Li-Heparin tube with blood gently 2 or 3 times to mix well. The tubes were then placed in a rack in ice water until able to centrifuge (≤1 hour). As soon as practical, the blood was centrifuged at ˜2000×g for 10 min in a refrigerated centrifuge to obtain plasma. Then, using a 200 μL pipette, the plasma was transferred to a labeled 1.5 ml Eppendorf tube in ice water. The plasma was then frozen in freezer or on dry ice. The samples were stored at −80° C. prior to analysis. Organs were collected from euthanized mice. The organs (lungs, liver, kidney, spleen and heart) were removed, placed in a tube, and immediately frozen in liquid nitrogen. The tubes were then transferred to dry ice. The samples were saved in cryogenic tissue vials. Samples were analyzed by LC-MS/MS using an ABSCIEX 5500 QTRAP LC-MS/MS system with a Hypercarb (PGC) column.

Ross River virus = experiment: Vero cell cytopathic effect (CPE) model, Ross River virus; type: cell-based
EEE virus = experiment: organism not typed; type: cell-based; details: Vero
WEE virus = experiment: organism not typed; type: cell-based; details: Vero
VEE virus = experiment: organism not typed; type: cell-based; details: Vero
CHIK virus = experiment: organism not typed; type: cell-based; details: Vero
CEM cells = experiment: Cytotoxicity profile, CEM cells; type: cell-based; details: CEM cells (low of range)
Huh7 (liver) cells = experiment: Cytotoxicity profile, Huh7 (liver) cells; type: cell-based; details: Huh7 (liver) cells (high of range)
[3] = Toxicology after 6 day q.d. intraperitoneal injections in mice; type: in vivo
Source text: Alternatively, drug delivery by aerosol (nasal spray) administration may immediately achieve therapeutic levels of drug in the nasal mucosa and the brain.

[4] = rat, in vivo, po, 50 mg/kg
[5] = Rodent pharmacokinetic experiment in DBA-1J mice; type: in vivo; details: female, mouse, plasma, after IV dosing, read-out: plasma T1/2 (converted)
pestivirus, hepacivirus = details: Stuyver et al., Antimicrob Agents Chemother 2003; cited from earlier work
in vivo = details: male, SD, rat, po, 50 mg/kg
Chikungunya virus = Chikungunya virus (MOI 0.5) viral inhibition in U2OS cell line; type: cell-based; details: for inhibition at 10 µM: read-out: Viral Inh. 10 uM; for inhibition at 50 µM: read-out: Viral Inh. 50 uM
U2OS cell line = experiment: Cell viability, U2OS cell line (Chikungunya screen)
VEEV = experiment: microbe, parasite or virus in culture; type: cell-based; details: Venezuelan equine encephalitis virus, HeLa

In the case of `CCCCCCCCC(=O)ONc1ccn([C@@H]2O[C@H](CO)[C@H](O)C2O)c(=O)n1` (stereo partly shown), the EC50 (SARS Coronavirus Orbani) is reported as 0.19 µg/mL (≈ 0.476 µM) and the CC50 (in vitro) is reported as 36 µg/mL (≈ 90.1 µM).
Molecule `CONc1ccn([C@@H]2O[C@H](CO)[C@H](O)C2O)c(=O)n1` (stereo partly shown) has an EC50 (SARS Coronavirus Orbani) of over 100 µg/mL and a CC50 (in vitro) of over 100 µg/mL.
Molecule `CC1(O)[C@@H](O)[C@@H](CO)O[C@H]1n1ccc(NO)nc1=O` (stereo partly shown) has an EC50 (Norovirus GT1) of over 100 µg/mL, a CC50 [1] of over 100 µg/mL and an EC50 (SARS Coronavirus Orbani) of over 100 µg/mL. The CC50 (in vitro) was over 100 µg/mL.
With `O=c1nc(NO)ccn1[C@@H]1O[C@H](CO)[C@H](O)C1O` (stereo in doubt) [EIDD-01931, 1-(3,4-dihydroxy-5-(hydroxymethyl)tetrahydrofuran-2-yl)-4-(hydroxyamino)pyrimidin-2-one] the “Bioavailability (versus I.P. delivery)” value ([2]; 30 mg/kg PO dosing) was 65%, the “Bioavailability (versus I.P. delivery)” value ([2]; 100 and 300 mg/kg PO dosing) was 39-46% and the Cmax ([2]; female, DBA-1J, mouse, plasma, PO dosing 30 mg/kg) was 3 ng/mL. For the same molecule, the Cmax ([2]; female, DBA-1J, mouse, plasma, PO dosing 100 mg/kg) was 7.7 ng/mL, the Cmax ([2]; female, DBA-1J, mouse, plasma, PO dosing 300 mg/kg) was 11.7 ng/mL and the half-life ([2]; female, DBA-1J, mouse, plasma, after PO dosing, read-out: plasma T1/2) was 246 to 282 min. For the same molecule, the Tmax ([2]; female, DBA-1J, mouse, plasma, after oral dosing) was 15 to 30 min, the concentration at 24 h ([2]; female, DBA-1J, mouse, plasma, after 100 mg/kg dose) was about 100 nM and the concentration at 24 h ([2]; female, DBA-1J, mouse, plasma, after 300 mg/kg P.O. dose) was about 400 nM. The EC50 (Ross River virus) was 2450 nM, the EC50 (EEE virus) was 1080 nM and the EC50 (WEE virus) was 1360 nM. It also gave an EC50 (VEE virus) of 1000 nM, an EC50 (CHIK virus) of 1280 nM and a selectivity index (CEM cells) of 8. For the same molecule, the selectivity index (Huh7 (liver) cells) was 232, the “body weight effect at highest dose tested” value ([3]; 100 mg/kg, 6 day q.d. IP, reversed on cessation of dosing) was “weight loss was observed” and the “NOEL (NO Effect Level)” value ([3]; 6 day q.d. intraperitoneal (IP) injections) was 33 mg/kg. For the same molecule, the tissue distribution [4] was “well distributed into all tissues tested”, the half-life [5] was 132 min and the antiviral activity (pestivirus, hepacivirus) was “antipestivirus and antihepacivirus activities”. For the same molecule, the bioavailability (in vivo) was 28%.
With `O=c1nc(NO)ccn1[C@@H]1O[C@H](CO)[C@H](O)C1O` (stereo partly shown) [drawing 76] the EC50 (Norovirus GT1) was over 100 µg/mL, the CC50 [1] was over 100 µg/mL and the EC50 (SARS Coronavirus Orbani) was under 0.1 µg/mL. For the same molecule, the CC50 (in vitro) was 36 µg/mL (≈ 139 µM).
Molecule `CCCCCCCOC(=O)ONc1ccn([C@@H]2O[C@H](CO)[C@H](O)C2O)c(=O)n1` (stereo partly shown) [drawing 78] has an EC50 (SARS Coronavirus Orbani) of 0.28 µg/mL (≈ 0.698 µM) and a CC50 (in vitro) of over 100 µg/mL.
In the case of `O=c1nc(NO)ccn1[C@@H]1O[C@H](CO)[C@H](O)C1O` (stereo partly shown) [drawing 81], the inhibition at 10 µM (Chikungunya virus) is reported as 80%, the inhibition at 50 µM (Chikungunya virus) is reported as 100% and the “Cell Viability 10 uM” value (U2OS cell line) is reported as 97% ± 5% (n = 4). For the same molecule, the “Cell Viability 50 uM” value (U2OS cell line) was 79% ± 10% (n = 4).
With `CCCCCCCOC(=O)ONc1ccn([C@@H]2O[C@H](CO)[C@H](O)C2O)c(=O)n1` (stereo partly shown) [drawing 82] the inhibition at 10 µM (Chikungunya virus) was 72%, the inhibition at 50 µM (Chikungunya virus) was 98% and the “Cell Viability 10 uM” value (U2OS cell line) was 93% ± 4% (n = 4). For the same molecule, the “Cell Viability 50 uM” value (U2OS cell line) was 78% ± 8% (n = 4).
In the case of `CC(C)OC(=O)[C@H](C)NP(=O)(OC[C@H]1O[C@@H](n2ccc(NO)nc2=O)C(O)[C@H]1O)Oc1ccccc1` (stereo partly shown) [drawing 83], the inhibition at 10 µM (Chikungunya virus) is reported as 3%, the inhibition at 50 µM (Chikungunya virus) is reported as 36% and the “Cell Viability 10 uM” value (U2OS cell line) is reported as 99% ± 6% (n = 4). For the same molecule, the “Cell Viability 50 uM” value (U2OS cell line) was 99% ± 8% (n = 4).
For `O=c1nc(NO)c(F)cn1[C@@H]1O[C@H](CO)[C@H](O)C1O` (stereo partly shown) [drawing 84], the inhibition at 10 µM (Chikungunya virus) was 8%, the inhibition at 50 µM (Chikungunya virus) was 51% and the “Cell Viability 10 uM” value (U2OS cell line) was 81% ± 4% (n = 4). For the same molecule, the “Cell Viability 50 uM” value (U2OS cell line) was 53% ± 2% (n = 4).
With `CCCCCCCNC(=O)ONc1ccn([C@@H]2O[C@H](CO)[C@H](O)C2O)c(=O)n1` (stereo partly shown) [drawing 85] the inhibition at 10 µM (Chikungunya virus) was 14%, the inhibition at 50 µM (Chikungunya virus) was 70% and the “Cell Viability 10 uM” value (U2OS cell line) was 105% ± 2% (n = 4). The “Cell Viability 50 uM” value (U2OS cell line) was 96% ± 11% (n = 4).
In the case of `O=c1nc(NO)ccn1[C@@H]1O[C@H](CO)[C@H](O)C1O` (stereo partly shown) [drawing 86], the EC50 (VEEV) is reported as 1240 nM, the inhibition at 10 µM (VEEV; read-out: Viral Inh. 10 uM) is reported as 100% and the inhibition at 50 µM (VEEV; read-out: Viral Inh. 50 uM) is reported as 100%. For the same molecule, the “Cell Viability 10 uM” value (HeLa; 10 uM) was 116% ± 24% (n = 4) and the “Cell Viability 50 uM” value (HeLa; 50 uM) was 61% ± 8% (n = 4).
